Reference: patent US8389573B2, “Glycyrrhetinic acid derivatives” (Wellington Laboratories Inc., priority 2006, dated 2013)

Tested on: HT-29 colon cancer cells
Experiment: Cell proliferation assay in HT-29 cells
Type: cell-based
Settings: Homo sapiens, read-out: IC50, growth inhibition / cell proliferation
Method: Human colon carcinoma cell lines SW480 and HT29 were provided by Dr. Stan Hamilton, M.D. Anderson Cancer Center (Houston, Tex.); SW-480 and HT-29 cells were maintained in Dulbecco's modified Eagle's medium nutrient mixture with Ham's F-12 (DMEM/Ham's F-12; Sigma-Aldrich, St. Louis, Mo.) with phenol red supplemented with 0.22% sodium bicarbonate, 0.011% sodium pyruvate, and 5% fetal bovine serum and 10 ml/l 100× antibiotic antimycotic solution (Sigma-Aldrich). Cells were maintained at 37° C. in the presence of 5% CO2.
SW480 and HT 29 Cells (2×10^4) were plated in 12-well plates, and media were replaced the next day with DMEM/Ham's F-12 media containing 2.5% charcoal-stripped FBS and either vehicle (DMSO) or the indicated ligand and dissolved in DMSO. Fresh media and compounds were added every 48 h. Cells were counted at the indicated times using a Coulter Z1 cell counter. Each experiment was done in triplicate, and results are expressed as means±S.E. for each determination

Question: How did the IC50 turn out when `COC(=O)[C@@]1(C)CC[C@]2(C)CC[C@]3(C)C(=CC(=O)[C@@H]4[C@@]5(C)C=C(C#N)C(=O)C(C)(C)[C@@H]5CC[C@]43C)[C@@H]2C1` [β-CDODA-Me, Methyl 2-cyano-3,11-dioxo-18β-oleana-1,12-dien-30-oate] was run?
Answer: 200 to 500 nM
